Experimental data published in patent US5668150A, “Non-symmetrical bis-heteroarylmethoxyphenylalkyl carboxylates as inhibitors of leukotriene biosynthesis” (Abbott Laboratories, priority 1996, dated 1997).
Structures can show the parent of a compound that is named as a salt. Where two headings read alike, the source gives them in different places.

System: 5-Lipoxygenase
Experiment: Inhibition of leukotriene biosynthesis in vitro: calcium ionophore-induced LTB4 formation in human polymorphonuclear leukocytes (PMNL)
Format: cell-based
Conditions: calcium ionophore 8.3 μM, 15 min preincubation, 37 °C; for % I, In Vitro Inhibitory Potencies Against 5-Lipoxygenase from Stimulated LTB4 Formation in Human Polymorphonuclear Leukocytes: @ 0.10 μM; for IC50: read-out: IC50, In Vitro Inhibitory Potencies Against 5-Lipoxygenase from Stimulated LTB4 Formation in Human Polymorphonuclear Leukocytes
Protocol: Inhibition of leukotriene biosynthesis was evaluated in vitro using an assay involving calcium ionophore-induced LTB4 expressed in human (PMNL). Human PMNL isolated from heparinized (20 USP units/mL) venous blood (25 mL) obtained from healthy volunteers was layered over an equal volume of Ficoll-Hypaque Mono-Poly Resolving Medium (ICN Flow, Costa Mesa, Calif.) and centrifuged at 400×g for 40 min at 20° C. The PMNL was collected, erythrocytes lysed and washed 2× and suspended at 1.0×10^7 cells/mL in Earle's balanced salt solution with 17 mM Earle's HEPES. Aliquots of the cell suspension were preincubated with test compounds dissolved in DMSO (final concentration <2%) for 15 min. and stimulated with calcium ionophore (final concentration 8.3 μM) for 10 min. at 37 ° C. Incubations were stopped with the addition of two volumes of ice-cold methanol followed by centrifuging the cell suspensions at 4° C. for 10 rain at 450×g. The mount of LTB4 in the methanol extract was analyzed by enzyme-linked immunoassay or by HPLC analysis.

CC(CCC(=O)O)(c1ccc(OCc2ccc3ccccc3n2)cc1)c1ccc(OCc2nc3ccccc3s2)cc1 (centres unmarked) [Example 1, 4-(4-(2-benzothiazolylmethoxy)phenyl)-4-(4-(2-quinolylmethoxy)phenyl)pentanoic acid]
% I, In Vitro Inhibitory Potencies Against 5-Lipoxygenase from Stimulated LTB4 Formation in Human Polymorphonuclear Leukocytes: 95%

CC(CCC(=O)O)(c1ccc(OCc2ccc3ccccc3n2)cc1)c1ccc(OCc2nc3ccccc3s2)cc1 (centres unmarked) [Example 2, 4-(4-(2-benzothiazolylmethoxy)phenyl)-4-(4-(2-quinolylmethoxy)phenyl)pentanoic acid sodium salt]
IC50: 52 nM

CC(CCC(=O)O)(c1ccc(OCc2ccc3ccccc3c2)cc1)c1ccc(OCc2ccc3ccccc3n2)cc1 (centres unmarked) [Example 3, 4-(4-(2-naphthylmethoxy)phenyl)-4-(4-(2-quinolylmethoxy)phenyl)pentanoic acid]
% I, In Vitro Inhibitory Potencies Against 5-Lipoxygenase from Stimulated LTB4 Formation in Human Polymorphonuclear Leukocytes: 93%

Cn1c(COc2ccc(C(C)(CCC(=O)O)c3ccc(OCc4ccc5ccccc5n4)cc3)cc2)nc2ccccc21 (centres unmarked) [Example 5, 4-(4-(2-(1-methyl)benzimidazolylmethoxy)phenyl)-4-(4-(2-quinolylmethoxy)phenyl)pentanoic acid sodium salt]
IC50 (sodium salt): 80 nM

Cn1c(COc2ccc(C(C)(CCC(=O)O)c3ccc(OCc4ccc5ccccc5n4)cc3)cc2)nc2ccccc21 (centres unmarked) [Example 6, 4-(4-(2-(1-methyl)benzimidazolylmethoxy)phenyl)-4-(4-(2-quinolylmethoxy)phenyl)pentanoic acid sodium salt]
IC50 (sodium salt): 90 nM
